Entries after “also recorded” stand apart in the source; their conditions may differ. Marks after values point to notes of the source that are not given here. Values belong to the molecule of their own block, whether it stands above or below them. Starred links: 1 amine or outer side, 2 acyl side, 3 side chain; linkers in the order of their positions; H or OH if unused. Positions of bridges follow the written chain, without caps; N, C: chain ends. Non-standard residues stand in square brackets, D forms with d. Residues, ends and D or L forms follow the SMILES beside them. Chains are numbered I, II in the order given. X1 = CC1=CC(=O)N(O)CCCC(NC(=O)CCN2C(=O)CC([*:3])C2=O)C(=O)OCCC(C)=CC(=O)N(O)CCCC(NC(=O)CCN2C(=O)CC([*:2])C2=O)C(=O)OCCC(C)=CC(=O)N(O)CCCC(NC(=O)CCN2C(=O)CC([*:1])C2=O)C(=O)OCC1; X2 = CC(=O)NC1CCCN(O)C(=O)C=C(C)CCOC(=O)C(NC(=O)CCN2C(=O)CC([*:1])C2=O)CCCN(O)C(=O)C=C(C)CCOC(=O)C(NC(=O)CCN2C(=O)CC([*:2])C2=O)CCCN(O)C(=O)C=C(C)CCOC1=O; Mpa = O=C(O)CCS
Legend:
[1] = tested on: peptidase (protease type 1 from bovine pancreas); assay: trimeric peptides labelled with non-radioactive gallium, neutralized, 1 mU of peptidase; settings: 37°C
[2] = tested on: peptidase (protease type 1 from bovine pancreas); assay: iron chelated trimeric peptides dissolved in PBS, 1 mU of peptidase added; settings: 37°C, up to 2 h
[3] = tested on: peptidase (protease type 1 from bovine pancreas); assay: PBS with 1 mU of peptidase; settings: 37°C, up to 2 h
[4] = tested on: peptidase (protease type 1 from bovine pancreas); assay: neutralized Ga-labelling solution with 1 mU of peptidase; settings: 37°C
[5] = freshly prepared human serum; settings: 37°C, up to 4 h
[6] = tested on: peptidase (protease type 1 from bovine pancreas, Sigma Aldrich); assay: PBS with 10 mU of peptidase; settings: 37°C, up to 120 min
[7] = liver homogenate of injected mice; settings: BALB/c mice, up to 5 min post injection
[8] = tested on: peptidase (protease type 1 from bovine pancreas); assay: radiolabelling solution neutralized, diluted with PBS, 10 mU of peptidase; settings: 37°C, up to 120 min
[9] = cited from earlier work
[10] = tested on: A431-CCK2R/A431-mock tumour xenografted BALB/c nude mice; settings: mouse, in vivo; cited from earlier work
CCK2 receptor = target: T1, CCK2 receptor (Homo sapiens, UniProt P32239); parameters: method as in PMID 29849512; settings: natGa-labelled competitor; 125I-[Leu15]-Gastrin radioligand; whole A431-CCK2R cells; cited from earlier work
T1 construct: expressed in transfected cells; host or cells: A431 human epidermoid carcinoma cells (A431-CCK2R), gift from Dr. L. Aloj
T1 sequence (P32239 1-447): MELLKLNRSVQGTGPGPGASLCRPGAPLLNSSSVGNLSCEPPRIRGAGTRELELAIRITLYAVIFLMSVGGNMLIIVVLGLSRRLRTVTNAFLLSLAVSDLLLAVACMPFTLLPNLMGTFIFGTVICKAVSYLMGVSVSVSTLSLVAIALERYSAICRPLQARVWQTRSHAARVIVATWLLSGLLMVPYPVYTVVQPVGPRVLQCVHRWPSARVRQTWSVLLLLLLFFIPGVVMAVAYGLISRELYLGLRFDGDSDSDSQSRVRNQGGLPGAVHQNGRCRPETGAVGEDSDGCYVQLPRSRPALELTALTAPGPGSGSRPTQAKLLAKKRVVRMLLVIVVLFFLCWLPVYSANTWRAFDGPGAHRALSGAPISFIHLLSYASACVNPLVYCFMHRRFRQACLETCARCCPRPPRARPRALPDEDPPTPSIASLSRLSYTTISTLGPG

cleaved bond [2]: Tyr-Gly, major
cleaved bond [3]: Tyr-Gly, major
Molecule: 3-MP^0-[D-Glu^1,desGlu^2-6]-Ala-Tyr-Gly-Trp-Met-Asp-Phe-NH2
fragment found [1]: Ga-Trimer-Met-M1; also recorded: Ga-Trimer-Met-M2; also recorded: Ga-Trimer-Met-M3
fragment found [4]: Ga-Trimer-Met-M1 (tR = 10.08 min); also recorded: Ga-Trimer-Met-M2 (tR = 8.02 min)

Molecule: 3-MP^0-[D-Glu^1,desGlu^2-6]-Ala-Tyr-Gly-Trp-Met-Asp-Phe-NH2 [68Ga-Trimer-Met]
fragment found [5]: ^68Ga-Trimer-Met-M1 (tR = 10.14 min), major; also recorded: ^68Ga-Trimer-Met-M2 (tR = 8.09 min), major
fragment found [6]: ^68Ga-Trimer-Met-M1 (tR = 10.14 min), major; also recorded: ^68Ga-Trimer-Met-M2 (tR = 8.09 min), major; also recorded: ^68Ga-Trimer-Met-M3 (tR = 5.68 min)

Molecule: 3-MP^0-[D-Glu^1,desGlu^2-6]-Ala-Tyr-Gly-Trp-Met-Asp-Phe-NH2 [^68Ga-Trimer-Met]
fragment found [7]: ^68Ga-Trimer-Met-M1, major, 5 min post injection; also recorded: ^68Ga-Trimer-Met-M2, major, 5 min post injection
fragment found [8]: ^68Ga-Trimer-Met-M1, major, 5 min; also recorded: ^68Ga-Trimer-Met-M2, major; also recorded: ^68Ga-Trimer-Met-M3

cleaved bond [2]: Tyr-Gly, major
cleaved bond [3]: Tyr-Gly, major
Molecule: 3-MP^0-[D-Glu^1,desGlu^2-6]-Ala-Tyr-Gly-Trp-Nle-Asp-Phe-NH2
fragment found [1]: Ga-Trimer-Nle-M1; also recorded: Ga-Trimer-Nle-M2; also recorded: Ga-Trimer-Nle-M3
fragment found [4]: Ga-Trimer-Nle-M1 (tR = 10.86 min); also recorded: Ga-Trimer-Nle-M2 (tR = 8.52 min)

Molecule: 3-MP^0-[D-Glu^1,desGlu^2-6]-Ala-Tyr-Gly-Trp-Nle-Asp-Phe-NH2 [68Ga-Trimer-Nle]
fragment found [5]: ^68Ga-Trimer-Nle-M1 (tR = 10.90 min), major; also recorded: ^68Ga-Trimer-Nle-M2 (tR = 8.59 min), major
fragment found [6]: ^68Ga-Trimer-Nle-M1 (tR = 10.93 min), major; also recorded: ^68Ga-Trimer-Nle-M2 (tR = 8.60 min), major

Molecule: 3-MP^0-[D-Glu^1,desGlu^2-6]-Ala-Tyr-Gly-Trp-Nle-Asp-Phe-NH2 [^68Ga-Trimer-Nle]
fragment found [7]: ^68Ga-Trimer-Nle-M1, major, 5 min post injection; also recorded: ^68Ga-Trimer-Nle-M2, major, 5 min post injection
fragment found [8]: ^68Ga-Trimer-Nle-M1, major, 5 min; also recorded: ^68Ga-Trimer-Nle-M2, major

Molecule: CSCC[C@H](NC(=O)[C@H](Cc1c[nH]c2ccccc12)NC(=O)CNC(=O)[C@H](Cc1ccc(O)cc1)NC(=O)[C@H](C)NC(=O)[C@@H](CCC(=O)O)NC(=O)CCSC1CC(=O)N(CCC(=O)NC2CCCN(O)C(=O)C=C(C)CCOC(=O)C(NC(=O)CCN3C(=O)CC(SCCC(=O)N[C@H](CCC(=O)O)C(=O)N[C@@H](C)C(=O)N[C@@H](Cc4ccc(O)cc4)C(=O)NCC(=O)N[C@@H](Cc4c[nH]c5ccccc45)C(=O)N[C@@H](CCSC)C(=O)N[C@@H](CC(=O)O)C(=O)N[C@@H](Cc4ccccc4)C(N)=O)C3=O)CCCN(O)C(=O)C=C(C)CCOC(=O)C(NC(C)=O)CCCN(O)C(=O)C=C(C)CCOC2=O)C1=O)C(=O)N[C@@H](CC(=O)O)C(=O)N[C@@H](Cc1ccccc1)C(N)=O (stereo partly drawn) [Dimer-Met] (I: [Mpa][dE]AYGWMDF-NH2 / II: [Mpa][dE]AYGWMDF-NH2; linker I:1-II:1 via X2)
Distribution coefficient logD (pH 7.4) [9]: -2.38 ± 0.04
Ratio T/O tumour-to-A431-mock [10]: 17.9 ± 6.1^c
Ratio T/O tumour-to-Blood [10]: 16.0 ± 3.1^cd
Ratio T/O tumour-to-Bone [10]: 11.6 ± 1.9^c
Ratio T/O tumour-to-Heart [10]: 27.2 ± 4.8^cd
Ratio T/O tumour-to-Intestine [10]: 19.9 ± 4.9^acd
Ratio T/O tumour-to-Kidneys [10]: 0.30 ± 0.06^c
Ratio T/O tumour-to-Liver [10]: 11.1 ± 2.4^cd
Ratio T/O tumour-to-Lung [10]: 14.4 ± 2.3^cd
Ratio T/O tumour-to-Muscle [10]: 31.4 ± 13.2^c
Ratio T/O tumour-to-Pancreas [10]: 17.9 ± 3.2^cd
Ratio T/O tumour-to-Spleen [10]: 23.1 ± 4.2^cd
Ratio T/O tumour-to-Stomach [10]: 4.0 ± 0.5^cd
IC50 (CCK2 receptor): 0.85 ± 0.15 nM

Molecule: CSCC[C@H](NC(=O)[C@H](Cc1c[nH]c2ccccc12)NC(=O)CNC(=O)[C@H](Cc1ccc(O)cc1)NC(=O)[C@H](C)NC(=O)[C@@H](CCC(=O)O)NC(=O)CCSC1CC(=O)N(CCC(=O)NC2CCCN(O)C(=O)C=C(C)CCOC(=O)C(NC(=O)CCN3C(=O)CC(SCCC(=O)N[C@H](CCC(=O)O)C(=O)N[C@@H](C)C(=O)N[C@@H](Cc4ccc(O)cc4)C(=O)NCC(=O)N[C@@H](Cc4c[nH]c5ccccc45)C(=O)N[C@@H](CCSC)C(=O)N[C@@H](CC(=O)O)C(=O)N[C@@H](Cc4ccccc4)C(N)=O)C3=O)CCCN(O)C(=O)C=C(C)CCOC(=O)C(NC(=O)CCN3C(=O)CC(SCCC(=O)N[C@H](CCC(=O)O)C(=O)N[C@@H](C)C(=O)N[C@@H](Cc4ccc(O)cc4)C(=O)NCC(=O)N[C@@H](Cc4c[nH]c5ccccc45)C(=O)N[C@@H](CCSC)C(=O)N[C@@H](CC(=O)O)C(=O)N[C@@H](Cc4ccccc4)C(N)=O)C3=O)CCCN(O)C(=O)C=C(C)CCOC2=O)C1=O)C(=O)N[C@@H](CC(=O)O)C(=O)N[C@@H](Cc1ccccc1)C(N)=O (stereo partly drawn) [Trimer-Met] (I: [Mpa][dE]AYGWMDF-NH2 / II: [Mpa][dE]AYGWMDF-NH2 / III: [Mpa][dE]AYGWMDF-NH2; linker I:1-II:1-III:1 via X1)
Distribution coefficient logD (pH 7.4) [9]: -2.20 ± 0.07
IC50 (CCK2 receptor): 8.33 ± 2.2 nM

Molecule: Monomer-Met: monovalent FSC-based minigastrin conjugate: dAcFSC-mal coupled to one MG-Met-SH peptide (EAYGWMDF; D-Glu at position 1 (printed D-Glu1, desGlu2-6); N-terminal 3-mercaptopropanoyl (3-MP0) whose thiol is coupled to the maleimide of diacetyl-fusarinine C (dAcFSC-mal); C-terminal Phe amide; FSC chelate)
IC50 (CCK2 receptor): 9.71 ± 3.55 nM

Source: PMC6066219 (PLoS ONE, 2018)
